Measured values as given in patent publication US9062027B2, “Carboxamide compounds and their use as calpain inhibitors V” (AbbVie Deutschland GmbH & Co. KG, priority 2010, dated 2015).

Target: T1, calpain-I (Homo sapiens, UniProt P07384)
T1 construct: calpain-I—isolated from human erythrocytes; purchased Calbiochem 208713; host or cells: human erythrocytes (native tissue isolate)
T1 sequence (P07384 1-714): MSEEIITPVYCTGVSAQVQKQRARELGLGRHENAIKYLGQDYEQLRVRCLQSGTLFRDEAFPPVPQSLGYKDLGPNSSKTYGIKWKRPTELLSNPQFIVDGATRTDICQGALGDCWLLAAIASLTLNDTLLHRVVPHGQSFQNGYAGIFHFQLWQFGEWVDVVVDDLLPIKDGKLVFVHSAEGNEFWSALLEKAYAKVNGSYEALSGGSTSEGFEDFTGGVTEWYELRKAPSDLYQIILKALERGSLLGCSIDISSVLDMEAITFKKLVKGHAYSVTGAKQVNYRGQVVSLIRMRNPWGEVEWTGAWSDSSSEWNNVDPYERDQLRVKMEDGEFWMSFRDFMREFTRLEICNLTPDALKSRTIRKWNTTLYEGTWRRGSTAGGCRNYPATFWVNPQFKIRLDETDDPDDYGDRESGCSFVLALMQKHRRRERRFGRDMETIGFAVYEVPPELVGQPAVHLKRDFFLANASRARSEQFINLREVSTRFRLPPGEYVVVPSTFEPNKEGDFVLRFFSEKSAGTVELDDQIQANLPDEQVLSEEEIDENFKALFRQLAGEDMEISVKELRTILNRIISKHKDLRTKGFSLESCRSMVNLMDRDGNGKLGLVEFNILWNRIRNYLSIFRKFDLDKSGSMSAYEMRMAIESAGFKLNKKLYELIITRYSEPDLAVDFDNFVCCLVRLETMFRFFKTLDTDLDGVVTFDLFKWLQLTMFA
T1 sequence (P04632 1-268 partner): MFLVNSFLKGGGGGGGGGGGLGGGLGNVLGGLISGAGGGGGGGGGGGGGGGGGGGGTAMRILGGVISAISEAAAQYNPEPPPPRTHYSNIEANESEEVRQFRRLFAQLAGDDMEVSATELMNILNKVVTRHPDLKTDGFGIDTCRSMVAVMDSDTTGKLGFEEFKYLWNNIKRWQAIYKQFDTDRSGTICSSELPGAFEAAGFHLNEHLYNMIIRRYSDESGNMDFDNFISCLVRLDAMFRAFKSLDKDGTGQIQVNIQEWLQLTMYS
Assay: Calpain I enzyme inhibition in vitro (kinetic fluorescence assay)
Assay type: biochemical
Details: apparent Ki from IC50 by Cheng-Prussoff; calpain-I from human erythrocytes, pH 7.3
Experimental: Testing for blockade of the corresponding enzymic activities was carried out by means of kinetic fluorescence assays (excitation 390 nm, emission 460 nm).
Apparent Ki values were calculated from the experimentally determined IC50 values by the Cheng-Prussoff relation assuming a reversible competitive enzyme inhibition.
20 nM calpain-I—isolated from human erythrocytes (Calbiochem #208713), 100 μM Suc-Leu-Tyr-AMC (Bachem #I-1355) as substrate in buffer with 62 mM imidazole, 0.3 mM CaCl2, 0.10% CHAPS, 0.05% BSA, 1 mM DTT at pH 7.3 and room temperature.

SMILES	Ki [nM]	Calpain activity (Ki(calpain))
O=C(NC1CC1)C(=O)C(Cc1ccccc1)NC(=O)c1cccnc1-n1cc2c(n1)CCCC2 (stereo not drawn) [Example 5, N-[4-(Cyclopropylamino)-3,4-dioxo-1-phenyl-2-butanyl]-2-(4,5,6,7-tetrahydro-2H-indazol-2-yl)nicotinamide]	400 to 800	
CCONC(=O)C(=O)C(Cc1ccccc1)NC(=O)c1cccnc1-n1cc2ccccc2n1 (stereo not drawn) [Example 4, N-[4-(Ethoxyamino)-3,4-dioxo-1-phenyl-2-butanyl]-2-(2H-indazol-2-yl)nicotinamide]	< 250	
O=C(NC1CC1)C(=O)C(Cc1ccccc1)NC(=O)c1cccnc1-n1cc2ccccc2n1 (stereo not drawn) [Example 1, N-[4-(Cyclopropylamino)-3,4-dioxo-1-phenylbutan-2-yl]-2-(2H-indazol-2-yl)nicotinamide]	400 to 800	
CONC(=O)C(=O)C(Cc1ccccc1)NC(=O)c1cccnc1-n1cc2cc(F)ccc2n1 (stereo not drawn) [Example 7, 2-(5-Fluoro-2H-indazol-2-yl)-N-[4-(methoxyamino)-3,4-dioxo-1-phenyl-2-butanyl]-3-pyridinecarboxamide]	< 250	
CONC(=O)C(=O)C(Cc1ccccc1)NC(=O)c1cccnc1-n1cc2ccccc2n1 (stereo not drawn) [Example 3, 2-(2H-Indazol-2-yl)-N-[4-(methoxyamino)-3,4-dioxo-1-phenyl-2-butanyl]nicotinamide]	< 250	

Results, then the compound that gave them:

Ki [nM]	Calpain activity (Ki(calpain))	SMILES
	∘	CCNC(=O)C(=O)C(Cc1ccccc1)NC(=O)c1cccnc1-n1cc2ccccc2n1 (stereo not drawn) [Example 2, N-[4-(Ethylamino)-3,4-dioxo-1-phenyl-2-butanyl]-2-(2H-indazol-2-yl)nicotinamide]
< 250		CONC(=O)C(=O)C(Cc1ccccc1)NC(=O)c1cccnc1-n1cc2ccc(C(F)(F)F)cc2n1 (stereo not drawn) [Example 9, N-[4-(Methoxyamino)-3,4-dioxo-1-phenyl-2-butanyl]-2-[6-(trifluoromethyl)-2H-indazol-2-yl]-3-pyridinecarboxamide]
250 to 400		CONC(=O)C(=O)C(Cc1ccccc1)NC(=O)c1cccnc1-n1cc2ccc(F)cc2n1 (stereo not drawn) [Example 8, 2-(6-Fluoro-2H-indazol-2-yl)-N-[4-(methoxyamino)-3,4-dioxo-1-phenyl-2-butanyl]-3-pyridinecarboxamide]

Test system: not listed separately
Assay: In-vivo pharmacokinetics and metabolite to parent ratio in plasma of cynomolgus monkeys
Details: cynomolgus monkey, female cynomolgus monkeys, 3 mg/kg oral versus 1 mg/kg intravenous
Experimental: The tested compounds were prepared as a solution for either intravenous or oral administration to groups of female cynomolgus monkeys. For intravenous dosing, the compounds were prepared in a 10% DMSO/PEG-400 vehicle at a concentration of 2 mg/ml. For oral dosing, the compounds were prepared in a lipid based vehicle at a concentration of 3 mg/ml. Groups of three monkeys received either a 1 mg/kg (0.5 ml/kg) intravenous dose or a 3 mg/kg (1 ml/kg) oral dose. The intravenous dose was administered as a slow bolus in a saphenous vein; the oral dose was administered by gastric intubation and was followed by ˜5 ml water. […] The samples were reconstituted with an aliquot of mobile phase, followed by quantification by HPLC-MS/MS. Standard curves for both parent and the selected metabolites were prepared from authentic standards in blank monkey plasma; standards were analyzed simultaneously with the samples. The plasma concentration of each sample was calculated by least squares linear regression analysis of the peak area ratio (parent or metabolite/internal standard) of the spiked plasma standards versus concentration.
Peak plasma concentrations (Cmax) and the time to peak plasma concentration (Tmax) were read directly from the plasma concentration data for each monkey. […] The apparent total plasma clearance (CLp) was calculated by dividing the administered dose by the AUC0-inf. […]

SMILES	bioavailability [%]
NC(=O)C(=O)C(Cc1ccccc1)NC(=O)c1cccnc1-n1cc2ccccc2n1 (stereo not drawn) [comp. ex., N-(3-Amino-1-benzyl-2,3-dioxopropyl)-2-(2H-indazol-2-yl)nicotinamide]	3
